From the NIST ThermoML archive (doi:10.1016/j.jct.2009.04.002)
Several values for one entry are separate records, joined by “and”; a condition that tells them apart may be missing. Identical values can stand only once.

Conditions: Liquid

CC(C)CCCCCCCOC(=O)c1ccccc1C(=O)OCCCCCCCC(C)C
Conditions | mass density, Vibrating tube method | viscosity, Falling or rolling sphere viscometry
333.15 K, 10000 kPa | 944.8 kg/m3 and 945.3 kg/m3 | –
333.15 K, 20000 kPa | 951 kg/m3 and 951.5 kg/m3 and 950.9 kg/m3 | 23.5 mPa·s and 22.4 mPa·s and 23.2 mPa·s
333.15 K, 30000 kPa | 956.7 kg/m3 and 957.1 kg/m3 and 956.6 kg/m3 | 28.2 mPa·s and 26.8 mPa·s and 27.8 mPa·s
333.15 K, 40000 kPa | 962.1 kg/m3 and 962.5 kg/m3 and 962 kg/m3 | 33.7 mPa·s and 31.9 mPa·s and 33.1 mPa·s
333.15 K, 50000 kPa | 967.2 kg/m3 and 967.6 kg/m3 and 967.1 kg/m3 | 40 mPa·s and 37.8 mPa·s and 39.3 mPa·s
333.15 K, 60000 kPa | 972.1 kg/m3 and 972.5 kg/m3 and 972 kg/m3 | 47.5 mPa·s and 44.5 mPa·s and 46.6 mPa·s
333.15 K, 70000 kPa | 976.7 kg/m3 and 977.1 kg/m3 and 976.6 kg/m3 | –
348.15 K, 100 kPa | 927.9 kg/m3 and 928.3 kg/m3 and 927.7 kg/m3 | –
348.15 K, 1000 kPa | 928.5 kg/m3 and 929 kg/m3 and 928.4 kg/m3 | –
348.15 K, 5000 kPa | 931.4 kg/m3 and 931.8 kg/m3 and 931.2 kg/m3 | –
348.15 K, 10000 kPa | 934.8 kg/m3 and 935.3 kg/m3 and 934.7 kg/m3 | –
348.15 K, 20000 kPa | 941.3 kg/m3 and 941.8 kg/m3 and 941.2 kg/m3 | –
348.15 K, 30000 kPa | 947.3 kg/m3 and 947.8 kg/m3 | –
348.15 K, 40000 kPa | 953 kg/m3 and 953.5 kg/m3 and 952.9 kg/m3 | –
348.15 K, 50000 kPa | 958.4 kg/m3 and 958.9 kg/m3 | –
348.15 K, 60000 kPa | 963.6 kg/m3 and 964 kg/m3 and 963.5 kg/m3 | –
348.15 K, 70000 kPa | 968.4 kg/m3 and 968.8 kg/m3 and 968.3 kg/m3 | –
353.15 K, 100 kPa | – | 8.42 mPa·s and 8.04 mPa·s and 8.35 mPa·s
353.15 K, 1000 kPa | – | 8.54 mPa·s and 8.16 mPa·s and 8.48 mPa·s
353.15 K, 5000 kPa | – | 9.14 mPa·s and 8.7 mPa·s and 9.06 mPa·s
353.15 K, 10000 kPa | – | 9.92 mPa·s and 9.43 mPa·s and 9.83 mPa·s
353.15 K, 20000 kPa | – | 11.7 mPa·s and 11 mPa·s and 11.5 mPa·s
353.15 K, 30000 kPa | – | 13.7 mPa·s and 12.9 mPa·s and 13.5 mPa·s
353.15 K, 40000 kPa | – | 16 mPa·s and 15.1 mPa·s and 15.8 mPa·s
353.15 K, 50000 kPa | – | 18.5 mPa·s and 17.5 mPa·s and 18.3 mPa·s
353.15 K, 60000 kPa | – | 21.5 mPa·s and 20.3 mPa·s and 21.2 mPa·s
373.15 K, 100 kPa | 909.5 kg/m3 and 910 kg/m3 and 909.4 kg/m3 | 5.05 mPa·s and 4.8 mPa·s and 5.09 mPa·s
373.15 K, 1000 kPa | 911 kg/m3 and 911.6 kg/m3 | 5.12 mPa·s and 4.87 mPa·s and 5.16 mPa·s
373.15 K, 5000 kPa | 914.3 kg/m3 and 914.8 kg/m3 and 914.2 kg/m3 | 5.44 mPa·s and 5.17 mPa·s and 5.47 mPa·s
373.15 K, 10000 kPa | 918.1 kg/m3 and 918.6 kg/m3 and 918 kg/m3 | 5.86 mPa·s and 5.57 mPa·s and 5.89 mPa·s
373.15 K, 20000 kPa | 925.3 kg/m3 and 925.9 kg/m3 and 925.2 kg/m3 | 6.79 mPa·s and 6.44 mPa·s and 6.8 mPa·s
373.15 K, 30000 kPa | 931.9 kg/m3 and 932.5 kg/m3 | 7.83 mPa·s and 7.42 mPa·s
373.15 K, 40000 kPa | 938.1 kg/m3 and 938.7 kg/m3 | 9 mPa·s and 8.52 mPa·s and 8.98 mPa·s
373.15 K, 50000 kPa | 943.9 kg/m3 and 944.6 kg/m3 and 944 kg/m3 | 10.3 mPa·s and 9.75 mPa·s
373.15 K, 60000 kPa | 949.5 kg/m3 and 950.1 kg/m3 | 11.7 mPa·s and 11.1 mPa·s
373.15 K, 70000 kPa | 954.7 kg/m3 and 955.2 kg/m3 and 954.6 kg/m3 | –
398.15 K, 100 kPa | 892.2 kg/m3 and 892.8 kg/m3 | –
398.15 K, 1000 kPa | 892.8 kg/m3 and 893.5 kg/m3 and 892.9 kg/m3 | –
398.15 K, 5000 kPa | 896.4 kg/m3 and 896.9 kg/m3 and 896.3 kg/m3 | –
398.15 K, 10000 kPa | 900.6 kg/m3 and 901.1 kg/m3 and 900.5 kg/m3 | –
398.15 K, 20000 kPa | 908.6 kg/m3 and 909.1 kg/m3 and 908.5 kg/m3 | –
398.15 K, 30000 kPa | 915.8 kg/m3 and 916.4 kg/m3 | –
398.15 K, 40000 kPa | 922.5 kg/m3 and 923.2 kg/m3 and 922.6 kg/m3 | –
398.15 K, 50000 kPa | 928.8 kg/m3 and 929.5 kg/m3 and 928.9 kg/m3 | –
398.15 K, 60000 kPa | 934.8 kg/m3 and 935.5 kg/m3 and 934.9 kg/m3 | –
398.15 K, 70000 kPa | 940.4 kg/m3 and 941 kg/m3 | –

Conditions | mass density, SVM3000 rotational viscometer | viscosity, Rotational Automated Viscometer
333.15 K | 938.7 kg/m3 and 938.3 kg/m3 | 15.79 mPa·s and 16.02 mPa·s and 15.97 mPa·s
338.15 K | 935.1 kg/m3 and 934.7 kg/m3 | 13.21 mPa·s and 13.4 mPa·s and 13.36 mPa·s
343.15 K | 931.6 kg/m3 and 931.1 kg/m3 | 11.18 mPa·s and 11.34 mPa·s and 11.31 mPa·s
348.15 K | 928 kg/m3 and 927.6 kg/m3 | 9.561 mPa·s and 9.696 mPa·s and 9.685 mPa·s
353.15 K | 924.4 kg/m3 and 924.1 kg/m3 | 8.257 mPa·s and 8.376 mPa·s and 8.37 mPa·s
358.15 K | 920.7 kg/m3 and 920.9 kg/m3 and 920.6 kg/m3 | 7.193 mPa·s and 7.3 mPa·s and 7.297 mPa·s
363.15 K | 917.2 kg/m3 and 917.4 kg/m3 and 917 kg/m3 | 6.329 mPa·s and 6.414 mPa·s and 6.412 mPa·s
368.15 K | 913.7 kg/m3 and 913.9 kg/m3 and 913.5 kg/m3 | 5.602 mPa·s and 5.677 mPa·s and 5.675 mPa·s
373.15 K | 910.3 kg/m3 and 910.5 kg/m3 and 910 kg/m3 | 4.989 mPa·s and 5.059 mPa·s and 5.057 mPa·s
